Results on 25 compounds are retold here after patent US20230278983A1, “INDOLE DERIVATIVES AND USES THEREOF FOR TREATING A CANCER” (Universite Claude Bernard Lyon 1, priority 2020, published 2023).

This assay has as its target CK2 (Homo sapiens (Human), UniProt P68400). The experiment in a line: Radiometric CK2 kinase assay. In kind it is biochemical. As to conditions: for inhibition at 0.1 µM: compound at 0.10 μM; for inhibition at 0.05 µM: compound at 0.05 μM.
Where [1] appears, read: inhibition of CK2 activity, ATP 10 μM.

The structures appear in SMILES notation. Read-outs that look alike come from different tables or passages of the source.

CK2, sequence (P68400 whole entry): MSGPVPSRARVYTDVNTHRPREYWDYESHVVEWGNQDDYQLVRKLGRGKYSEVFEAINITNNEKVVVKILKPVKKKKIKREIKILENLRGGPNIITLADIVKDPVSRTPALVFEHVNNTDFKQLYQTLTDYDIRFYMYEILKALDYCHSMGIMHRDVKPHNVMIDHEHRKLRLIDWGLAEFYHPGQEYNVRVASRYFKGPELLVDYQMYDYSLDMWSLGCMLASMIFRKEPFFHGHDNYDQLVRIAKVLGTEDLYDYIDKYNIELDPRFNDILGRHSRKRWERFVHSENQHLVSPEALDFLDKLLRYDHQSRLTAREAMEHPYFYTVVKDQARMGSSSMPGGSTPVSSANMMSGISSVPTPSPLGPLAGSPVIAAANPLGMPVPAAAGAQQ

As usually defined, the inhibition is the drop in the measured response relative to a control, in per cent. `CC(C)COC(=O)c1[nH]c2ccc(F)cc2c1-c1cn(CC2CCN(S(=O)(=O)c3ccc4c(c3)OCC4)CC2)nn1` [AB939, isobutyl 3-(1-((1-((2,3-dihydrobenzofuran-6-yl)sulfonyl)piperidin-4-yl)methyl)-1H-1,2,3-triazol-4-yl)-5-fluoro-1H-indole-2-carboxylate] returned an inhibition at 1 µM (compound at 1 μM, ATP 10 μM) of 4%.

For orientation: IC50 means the concentration that gives 50% inhibition. A lower IC50 goes with greater potency. With `CC(C)COC(=O)c1[nH]c2ccc(F)cc2c1-c1cn(CC2CCN(CCNS(=O)(=O)Cc3ccc(Br)cc3)CC2)nn1` [AB1030, isobutyl 3-(1-((1-(2-(((4-bromophenyl)methyl)sulfonamido)ethyl)piperidin-4-yl)methyl)-1H-1,2,3-triazol-4-yl)-5-fluoro-1H-indole-2-carboxylate], under setting [1], the IC50 worked out at 54 nM.

Turning to `CC(C)COC(=O)c1[nH]c2ccc(F)cc2c1-c1cn(CC2CCN(CCNS(=O)(=O)Cc3cccc(Br)c3)CC2)nn1` [AB1031, isobutyl 3-(1-((1-(2-(((3-bromophenyl)methyl)sulfonamido)ethyl)piperidin-4-yl)methyl)-1H-1,2,3-triazol-4-yl)-5-fluoro-1H-indole-2-carboxylate], half-maximal inhibition under setting [1] (IC50) was put at 150 nM.

The compound `CC(C)COC(=O)c1[nH]c2ccc(F)cc2c1-c1cn(CC2CCN(CCNS(=O)(=O)c3ccc(-c4cn[nH]c4)cc3)CC2)nn1` [AB1032, isobutyl 3-(1-((1-(2-((4-(1H-pyrazol-4-yl)phenyl)sulfonamido)ethyl)piperidin-4-yl)methyl)-1H-1,2,3-triazol-4-yl)-5-fluoro-1H-indole-2-carboxylate] had an IC50 of 200 nM.

For `CC(C)COC(=O)c1[nH]c2ccc(F)cc2c1-c1cn(CC2CCN(CCNS(=O)(=O)c3ccc(C4=CCC(F)(F)CC4)cc3)CC2)nn1` [AB1070, isobutyl 3-(1-((1-(2-((4′,4′-difluoro-2′,3′,4′,5′-tetrahydro-[1,1′-biphenyl])-4-sulfonamido)ethyl)piperidin-4-yl)methyl)-1H-1,2,3-triazol-4-yl)-5-fluoro-1H-indole-2-carboxylate], the IC50 worked out at 200 nM.

As to `CC(C)COC(=O)c1[nH]c2ccc(F)cc2c1-c1cn(CC2CCN(CCNS(=O)(=O)c3ccc(-c4ccoc4)cc3)CC2)nn1` [AB1071, isobutyl 5-fluoro-3-(1-((1-(2-((4-(furan-3-yl)phenyl)sulfonamido)ethyl)piperidin-4-yl)methyl)-1H-1,2,3-triazol-4-yl)-1H-indole-2-carboxylate], the IC50 amounted to 65 nM.

Take `CC(C)COC(=O)c1[nH]c2ccc(F)cc2c1-c1cn(CC2CCN(CCNS(=O)(=O)c3ccc4c(c3)OCCCO4)CC2)nn1` [AB1072, isobutyl 3-(1-((1-(2-((3,4-dihydro-2H-benzo[b][1,4]dioxepine)-7-sulfonamido)ethyl)piperidin-4-yl)methyl)-1H-1,2,3-triazol-4-yl)-5-fluoro-1H-indole-2-carboxylate]: the IC50 came out at 100 nM.

In turn, `CC(C)COC(=O)c1[nH]c2ccc(F)cc2c1-c1cn(CC2CCN(CCNS(=O)(=O)c3ccc(-c4cccnc4N4CCCC4)cc3)CC2)nn1` [AB1073, isobutyl 5-fluoro-3-(1-((1-(2-((4-(2-(pyrrolidin-1-yl)pyridin-3-yl)phenyl)sulfonamido)ethyl)piperidin-4-yl)methyl)-1H-1,2,3-triazol-4-yl)-1H-indole-2-carboxylate] registered an IC50 of 18 nM.

For `CC(C)COC(=O)c1[nH]c2ccc(F)cc2c1-c1cn(CC2CCN(CCNS(=O)(=O)c3ccc(C4=CCOCC4)cc3)CC2)nn1` [AB1074, isobutyl 3-(1-((1-(2-((4-(3,6-dihydro-2H-pyran-4-yl)phenyl)sulfonamido)ethyl)piperidin-4-yl)methyl)-1H-1,2,3-triazol-4-yl)-5-fluoro-1H-indole-2-carboxylate], the IC50 is 69 nM.

The compound `CC(C)COC(=O)c1[nH]c2ccc(F)cc2c1-c1cn(CC2CCN(CCNS(=O)(=O)c3ccc(-c4ccccc4CN4CCOCC4)cc3)CC2)nn1` [AB1075] yielded an IC50 under setting [1] of 79 nM.

The compound `Cc1noc(C)c1-c1ccc(S(=O)(=O)NCCN2CCC(Cn3cc(-c4c(C(=O)OCC(C)C)[nH]c5ccc(F)cc45)nn3)CC2)cc1` [AB1130, isobutyl 3-(1-((1-(2-((4-(3,5-dimethylisoxazol-4-yl)phenyl)sulfonamido)ethyl)piperidin-4-yl)methyl)-1H-1,2,3-triazol-4-yl)-5-fluoro-1H-indole-2-carboxylate] showed a half-inhibitory concentration (IC50) of 49 nM.

Regarding `CC(C)Cc1ccc(S(=O)(=O)NCCN2CCC(Cn3cc(-c4c(C(=O)N5CCOCC5)[nH]c5ccc(F)cc45)nn3)CC2)cc1` [AB1132, N-(2-(4-((4-(5-fluoro-2-(morpholine-4-carbonyl)-1H-indol-3-yl)-1H-1,2,3-triazol-1-yl)methyl)piperidin-1-yl)ethyl)-4-isobutylbenzenesulfonamide], 0.1 µM produced 4% inhibition (ATP 10 μM).

In turn, `CC(C)COC(=O)c1[nH]c2ccc(F)cc2c1-c1cn(CC2CCN(CCNS(=O)(=O)c3ccc(-c4cccnc4Cl)cc3)CC2)nn1` [AB1133, isobutyl 3-(1-((1-(2-((4-(2-chloropyridin-3-yl)phenyl)sulfonamido)ethyl)piperidin-4-yl)methyl)-1H-1,2,3-triazol-4-yl)-5-fluoro-1H-indole-2-carboxylate] came in with an IC50 of 26 nM.

`CC(C)COC(=O)c1[nH]c2ccc(F)cc2c1-c1cn(CC2CCN(CCNS(=O)(=O)c3ccc(-c4ccc(C#N)cc4)cc3)CC2)nn1` [AB1134, isobutyl 3-(1-((1-(2-((4′-cyano-[1,1′-biphenyl])-4-sulfonamido)ethyl)piperidin-4-yl)methyl)-1H-1,2,3-triazol-4-yl)-5-fluoro-1H-indole-2-carboxylate] had an inhibition at 0.1 µM (ATP 10 μM) of 5%.

`CC(=O)c1[nH]c2ccc(F)cc2c1-c1cn(CC2CCN(CCNS(=O)(=O)c3ccc(CC(C)C)cc3)CC2)nn1` [AB1135, N-(2-(4-((4-(2-acetyl-5-fluoro-1H-indol-3-yl)-1H-1,2,3-triazol-1-yl)methyl)piperidin-1-yl)ethyl)-4-isobutylbenzenesulfonamide] showed an IC50 of 48 nM.

For the compound `CCCCC(=O)c1[nH]c2ccc(F)cc2c1-c1cn(CC2CCN(CCNS(=O)(=O)c3ccc(CC(C)C)cc3)CC2)nn1` [AB1145, N-(2-(4-((4-(5-fluoro-2-pentanoyl-1H-indol-3-yl)-1H-1,2,3-triazol-1-yl)methyl)piperidin-1-yl)ethyl)-4-isobutylbenzenesulfonamide], the IC50 is 130 nM.

Take `COc1ccccc1-c1ccc(S(=O)(=O)NCCN2CCC(Cn3cc(-c4c(C(=O)OCC(C)C)[nH]c5ccc(F)cc45)nn3)CC2)cc1` [AB1205, isobutyl 5-fluoro-3-(1-((1-(2-((2′-methoxy-[1,1′-biphenyl])-4-sulfonamido)ethyl)piperidin-4-yl)methyl)-1H-1,2,3-triazol-4-yl)-1H-indole-2-carboxylate]: 0.05 µM produced 59% inhibition (ATP 10 μM).

For `COc1cccc(OC)c1-c1ccc(S(=O)(=O)NCCN2CCC(Cn3cc(-c4c(C(=O)OCC(C)C)[nH]c5ccc(F)cc45)nn3)CC2)cc1` [AB1206, isobutyl 3-(1-((1-(2-((2′,6′-dimethoxy-[1,1′-biphenyl])-4-sulfonamido)ethyl)piperidin-4-yl)methyl)-1H-1,2,3-triazol-4-yl)-5-fluoro-1H-indole-2-carboxylate], the IC50 came to 16 nM.

Where the note is “ATP 10 μM”, `CC(C)COC(=O)c1[nH]c2ccc(F)cc2c1-c1cn(CC2CCN(CCNS(=O)(=O)c3ccc(-c4cccnc4F)cc3)CC2)nn1` [AB1207, isobutyl 5-fluoro-3-(1-((1-(2-((4-(2-fluoropyridin-3-yl)phenyl)sulfonamido)ethyl)piperidin-4-yl)methyl)-1H-1,2,3-triazol-4-yl)-1H-indole-2-carboxylate] registered an inhibition at 0.05 µM of 61%.

The compound `CC(C)COC(=O)c1[nH]c2ccc(F)cc2c1-c1cn(CC2CCN(CCNS(=O)(=O)c3ccc(-c4c(F)cccc4F)cc3)CC2)nn1` [AB1208, isobutyl 3-(1-((1-(2-((2′,6′-difluoro-[1,1′-biphenyl])-4-sulfonamido)ethyl)piperidin-4-yl)methyl)-1H-1,2,3-triazol-4-yl)-5-fluoro-1H-indole-2-carboxylate] yielded an IC50 of 45 nM.

In turn, `CC(C)COC(=O)c1[nH]c2ccc(F)cc2c1-c1cn(CC2CCN(CCNS(=O)(=O)c3ccc(-c4ccccc4N(C)C)cc3)CC2)nn1` [AB1209, isobutyl 3-(1-((1-(2-((2′-(dimethylamino)-[1,1′-biphenyl])-4-sulfonamido)ethyl)piperidin-4-yl)methyl)-1H-1,2,3-triazol-4-yl)-5-fluoro-1H-indole-2-carboxylate] came in with an IC50 of 70 nM.

On to `Cc1ccc(CS(=O)(=O)NCCN2CCC(Cn3cc(-c4c(C(=O)OCC(C)C)[nH]c5ccc(F)cc45)nn3)CC2)cc1` [AB1210, isobutyl 5-fluoro-3-(1-((1-(2-((p-tolylmethyl)sulfonamido)ethyl)piperidin-4-yl)methyl)-1H-1,2,3-triazol-4-yl)-1H-indole-2-carboxylate], for which, under setting [1], the IC50 turned out to be 85 nM.

Under “ATP 10 μM”, `O=C(c1[nH]c2ccc(F)cc2c1-c1cn(CC2CCN(CCNS(=O)(=O)c3ccc(-c4cccnc4Cl)cc3)CC2)nn1)C1CC1` [AB1232, 4-(2-chloropyridin-3-yl)-N-(2-(4-((4-(2-(cyclopropanecarbonyl)-5-fluoro-1H-indol-3-yl)-1H-1,2,3-triazol-1-yl)methyl)piperidin-1-yl)ethyl)benzenesulfonamide] had an inhibition at 0.05 µM of 16%.

For the setting “ATP 10 μM”, `CCCC(=O)c1[nH]c2ccc(F)cc2c1-c1cn(CC2CCN(CCNS(=O)(=O)c3ccc(-c4cccnc4Cl)cc3)CC2)nn1` [AB1233, N-(2-(4-((4-(2-butyryl-5-fluoro-1H-indol-3-yl)-1H-1,2,3-triazol-1-yl)methyl)piperidin-1-yl)ethyl)-4-(2-chloropyridin-3-yl)benzenesulfonamide] gave an inhibition at 0.05 µM of 17%.

For the compound `CC(C)Cc1ccc(S(=O)(=O)NCCN2CCC(Cn3cc(-c4c(C=O)[nH]c5ccc(F)cc45)nn3)CC2)cc1` [AB1235, N-(2-(4-((4-(5-fluoro-2-formyl-1H-indol-3-yl)-1H-1,2,3-triazol-1-yl)methyl)piperidin-1-yl)ethyl)-4-isobutylbenzenesulfonamide], it took 90 nM to reach half-maximal inhibition under setting [1] (IC50).
